{
  "source": "paper PMC4941420",
  "about": "“A Rational Approach for the Identification of Non-Hydroxamate HDAC6-Selective Inhibitors” (Scientific Reports, 2016)",
  "key": {"[1]": {"target": "T1, HDAC8 (Homo sapiens, UniProt Q9BY41)", "T1 construct": "purchased Sigma Aldrich or Reaction Biology Corporation", "T1 sequence (Q9BY41 1-377)": "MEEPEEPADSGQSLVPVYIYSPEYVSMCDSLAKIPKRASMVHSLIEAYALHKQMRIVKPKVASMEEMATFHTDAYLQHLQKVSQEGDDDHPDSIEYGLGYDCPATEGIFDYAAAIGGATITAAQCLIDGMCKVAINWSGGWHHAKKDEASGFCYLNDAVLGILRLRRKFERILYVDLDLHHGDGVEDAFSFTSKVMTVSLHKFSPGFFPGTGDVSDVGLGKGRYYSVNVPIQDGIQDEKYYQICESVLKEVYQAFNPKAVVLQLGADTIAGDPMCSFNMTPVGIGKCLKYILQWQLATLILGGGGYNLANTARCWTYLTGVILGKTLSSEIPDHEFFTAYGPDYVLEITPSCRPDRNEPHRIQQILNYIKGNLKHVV", "experiment": "In vitro enzymatic assay HDAC8 (Fluor de Lys)", "format": "biochemical", "settings": "average of at least 2 independent experiments in duplicates ± SEM"}, "[2]": {"tested_on": "class I HDACs (HeLa nuclear extracts)", "experiment": "HDAC activity of HeLa nuclear extracts (Fluor de Lys)", "format": "biochemical, human", "settings": "100 μM, average of at least 3 independent experiments in duplicates (Table 1)"}, "[3]": {"target": "T2, HDAC4 (Homo sapiens, UniProt P56524)", "T2 construct": "purchased Sigma Aldrich or Reaction Biology Corporation", "T2 sequence (P56524 whole entry)": "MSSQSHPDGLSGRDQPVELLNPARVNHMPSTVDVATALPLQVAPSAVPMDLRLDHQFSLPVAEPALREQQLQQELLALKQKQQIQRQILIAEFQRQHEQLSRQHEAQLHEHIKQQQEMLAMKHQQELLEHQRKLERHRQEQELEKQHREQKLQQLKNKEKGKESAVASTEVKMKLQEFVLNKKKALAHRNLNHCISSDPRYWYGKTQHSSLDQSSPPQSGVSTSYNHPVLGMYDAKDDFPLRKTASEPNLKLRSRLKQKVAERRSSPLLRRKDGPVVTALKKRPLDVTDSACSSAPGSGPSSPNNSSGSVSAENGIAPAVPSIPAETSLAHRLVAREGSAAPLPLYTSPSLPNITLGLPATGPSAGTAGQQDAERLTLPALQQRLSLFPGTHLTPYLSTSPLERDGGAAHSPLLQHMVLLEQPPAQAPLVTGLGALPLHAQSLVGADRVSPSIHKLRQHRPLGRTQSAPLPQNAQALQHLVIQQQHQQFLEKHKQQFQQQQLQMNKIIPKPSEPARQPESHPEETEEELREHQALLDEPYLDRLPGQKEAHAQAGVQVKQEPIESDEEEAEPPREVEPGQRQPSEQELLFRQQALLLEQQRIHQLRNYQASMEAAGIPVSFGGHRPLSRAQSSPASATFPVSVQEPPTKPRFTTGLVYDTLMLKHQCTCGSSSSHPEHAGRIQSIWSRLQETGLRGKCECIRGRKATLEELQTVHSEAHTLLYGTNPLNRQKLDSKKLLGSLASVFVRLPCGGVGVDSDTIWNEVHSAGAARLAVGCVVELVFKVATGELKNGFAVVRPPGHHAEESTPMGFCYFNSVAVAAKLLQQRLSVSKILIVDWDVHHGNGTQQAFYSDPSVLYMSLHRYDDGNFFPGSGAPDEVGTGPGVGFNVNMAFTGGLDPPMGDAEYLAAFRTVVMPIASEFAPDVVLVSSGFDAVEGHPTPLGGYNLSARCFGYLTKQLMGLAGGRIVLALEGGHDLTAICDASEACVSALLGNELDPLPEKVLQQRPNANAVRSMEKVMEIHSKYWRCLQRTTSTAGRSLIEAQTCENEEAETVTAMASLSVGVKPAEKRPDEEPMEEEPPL", "experiment": "In vitro enzymatic assay HDAC4 (Fluor de Lys)", "format": "biochemical", "settings": "average of at least 2 independent experiments in duplicates ± SEM"}, "[4]": {"experiment": "PAMPA-BBB", "format": "in vitro ADME", "procedure": "The PAMPA experiment was performed according to the PAMPA-BBB method described by Di et al.[46]. Test compounds were dissolved at 20 mM in DMSO and then diluted 200 times using a buffer solution at pH 7.4 (prepared according to the Geigy table, containing 54 mM Na2HPO4 and 13 mM KH2PO4). The resulting solutions, containing the compounds at 100 μM (0.5% DMSO), represented the donor solutions at the initial time. A total of 280 μL of the donor solution were added in each well of a Teflon® 96-well microplate (Millipore MSSACCEPTOR) forming the donor compartments. Each well of a hydrophobic polyvinylidene fluoride (PVDF) 96-well microtitre filter plate (Multiscreen® MAIPN4550, 70% porosity, pore diameter 0.45 μm, cross-sectional area 0.3 cm^2) was impregnated with 4 μL of a polar brain lipids solution (20 mg/mL in dodecane, PBL obtained from Avanti Polar Lipids), placed under a fume hood and subjected to constant shaking at 75 rpm for approximately 10 min to homogeneously lay the artificial membrane. […] Each tested compound was analysed in triplicate. The effective passive permeability value (Pe) was calculated according the two-way flux equations, obtained from the Fick’s law[47]. The calculated effective passive permeability values Pe were considered relevant only if RSD < 15% as quality control was fulfilled. […]"}, "[5]": {"experiment": "Solubility remarks during testing", "format": "physicochemical", "settings": "concentrations higher than 500 μM cannot be tested"}, "[6]": {"experiment": "Cytotoxicity XTT, HEK 293", "format": "cell-based", "settings": "human, HEK 293 cells (ATCC CRL-1573), mean ± SD of 3 independent experiments in triplicate, read-out: cytotoxic IC50 HEK 293", "procedure": "HeLa and HEK 293 cells (ATCC CRL-1573) were cultured as described above and seeded into 96-well plates at 400 cells/well. Test and standard compounds were added to plate wells in triplicate (0.05% DMSO in culture medium) in a range of six concentrations. Following 72 h of incubation, […] of an activated XTT solution was added to the cells (1 mg/mL). The absorbance was measured at 450 nm after 2 h incubation at 37 °C. The growth of the compound-treated cells was compared with the growth of vehicle-treated control cells. IC50 values were calculated with GraphPad Prism 6.0."}},
  "data": [
    {"smiles": "NNC(=O)c1ccc(COc2ccccc2Cl)cc1", "note": "[AK-14]", "values": [
      {"measurement": "IC50", "setting": "[1]", "value": "> 300", "unit": "µM"},
      {"measurement": "HeLa % of inhibition at 100 μM", "setting": "[2]", "value": "2.7 ± 1.3", "unit": "%"},
      {"measurement": "IC50", "setting": "[3]", "value": "> 300", "unit": "µM"},
      {"measurement": "Papp at 18 h, 100 μM", "setting": "[4]; PAMPA, pH 7.4, 100 μM donor, 18 hours, room temperature, read-out: effective passive permeability Pe (PAMPA-BBB)", "value": 6.5, "unit": "×10⁻⁶ cm/s"},
      {"measurement": "PAMPA-BBB classification", "setting": "[4]; pH 7.4", "value": "CNS +"},
      {"measurement": "solubility remark in HeLa cell assay", "setting": "[5]", "value": "solubility issues"},
      {"measurement": "IC50 at 72 h", "setting": "[6]", "value": "34.5 ± 4.8", "unit": "µM"}
    ]}
  ]
}
